23 compounds from ChEMBL document CHEMBL2169779, “Mitigating heterocycle metabolism in drug discovery” (J Med Chem, 2012) can be followed below.

Data set [1] can be described thus: Drug metabolism in rat liver microsomes at 10 uM. The conditions noted are these: read-out: Drug metabolism. It counts as ADME, Microsome.
Data set [2] can be described thus: Oral bioavailability in Sprague-Dawley rat at 5 mg/kg. It counts as ADME, organism-based. Particulars: in vivo.
The nature of data set [3]: Volume of distribution at steady state in Sprague-Dawley rat at 1 mg/kg, iv. In kind it is ADME, organism-based. Also on record: dose 1 mg/kg, route intravenous. The conditions noted are these: in vivo, read-out: Vdss.
The nature of data set [4]: Half life in Sprague-Dawley rat at 1 mg/kg, iv. It counts as ADME, organism-based. Further details: dose 1 mg/kg, route intravenous. The conditions noted are these: in vivo.
The nature of data set [5]: Plasma clearance in Sprague-Dawley rat at 1 mg/kg, iv. In kind it is ADME, organism-based. Further details: dose 1 mg/kg, route intravenous.
The target in data set [6] is Metabotropic glutamate receptor 5 (Homo sapiens, UniProt P41594). Nature of the data set: Antagonist activity at mGlu5 receptor. In kind it is functional.
Metabotropic glutamate receptor 5, sequence (P41594 whole entry): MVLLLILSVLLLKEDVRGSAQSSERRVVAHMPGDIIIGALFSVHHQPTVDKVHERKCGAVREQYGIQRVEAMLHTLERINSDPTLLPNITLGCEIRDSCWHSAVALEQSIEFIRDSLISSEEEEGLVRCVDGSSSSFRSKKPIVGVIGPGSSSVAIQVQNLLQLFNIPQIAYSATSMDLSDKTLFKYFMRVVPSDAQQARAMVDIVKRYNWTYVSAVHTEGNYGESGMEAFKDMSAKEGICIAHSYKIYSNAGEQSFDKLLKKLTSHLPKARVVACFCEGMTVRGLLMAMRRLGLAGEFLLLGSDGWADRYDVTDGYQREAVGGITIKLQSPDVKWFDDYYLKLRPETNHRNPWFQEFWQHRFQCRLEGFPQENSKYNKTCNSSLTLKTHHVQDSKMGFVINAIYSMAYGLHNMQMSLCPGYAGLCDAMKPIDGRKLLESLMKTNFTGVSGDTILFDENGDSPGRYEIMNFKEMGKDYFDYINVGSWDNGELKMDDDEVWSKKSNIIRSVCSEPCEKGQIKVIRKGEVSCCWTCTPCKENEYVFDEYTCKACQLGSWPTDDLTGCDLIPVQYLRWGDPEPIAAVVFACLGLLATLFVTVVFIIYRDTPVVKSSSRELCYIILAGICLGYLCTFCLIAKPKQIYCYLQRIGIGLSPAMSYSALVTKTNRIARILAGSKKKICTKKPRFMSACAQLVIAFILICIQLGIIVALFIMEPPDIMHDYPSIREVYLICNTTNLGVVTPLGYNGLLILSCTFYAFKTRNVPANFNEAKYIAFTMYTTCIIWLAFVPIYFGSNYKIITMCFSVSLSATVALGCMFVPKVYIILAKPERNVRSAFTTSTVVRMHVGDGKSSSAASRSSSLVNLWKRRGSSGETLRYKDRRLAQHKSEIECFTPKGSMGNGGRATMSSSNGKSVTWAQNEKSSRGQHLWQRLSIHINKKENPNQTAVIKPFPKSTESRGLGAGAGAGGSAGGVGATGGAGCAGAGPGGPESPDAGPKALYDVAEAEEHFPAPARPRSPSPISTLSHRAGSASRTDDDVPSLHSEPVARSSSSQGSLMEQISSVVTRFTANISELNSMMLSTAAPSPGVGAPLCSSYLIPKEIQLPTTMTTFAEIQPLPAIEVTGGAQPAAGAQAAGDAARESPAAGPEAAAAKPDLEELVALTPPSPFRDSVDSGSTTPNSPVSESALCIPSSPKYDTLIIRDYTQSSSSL
Data set [7] can be described thus: Volume of distribution at steady state in Wistar rat. In kind it is ADME, organism-based. The conditions noted are these: in vivo, read-out: Vdss.
Data set [8] is described as follows: in vivo. The conditions noted are these: Wistar, rat.
Data set [9] is described as follows: Intrinsic clearance in Wistar rat. In kind it is ADME, organism-based. Particulars: in vivo.
Data set [10] can be described thus: in vivo. Particulars: Wistar, rat, po.
Description: Oral bioavailability in Wistar rat
The nature of data set [11]: physchem.
Description: Dissociation constant, pKa of the compound

For `Cc1cn([C@H](C)C2CC2)c(=O)c(Nc2c(Cl)cc(OC(F)F)cc2Cl)n1`, the metabolised at 10 µM in data set [1] is 7%.
In general, bioavailability refers to dose-corrected exposure relative to a reference, in per cent. A lower bioavailability goes with poor availability. As usually defined, the half-life is the time needed for the level to fall by half in the phase considered. A higher half-life goes with slow decline. In general, clearance refers to the rate of elimination divided by the concentration. As for `O=C(Nc1nc(-c2ccc(F)c(C(F)(F)F)c2)ns1)c1cnc(N2CCC(C(=O)O)CC2)c(Cl)c1`, the bioavailability in data set [2] came out at 73.5%. Also, the Vd in data set [3] was determined as 0.22 L/kg. The half-life in data set [4] is 1.09 h. The clearance in data set [5] turned out to be 1.49 mL/min/kg.
With `O=C(Nc1nc(-c2ccc(F)c(C(F)(F)F)c2)c(F)s1)c1cnc(N2CCC(C(=O)O)CC2)c(Cl)c1`, in data set [2], the bioavailability is 73%. Also, in [3], the Vd is 0.34 L/kg. Besides, the half-life in data set [4] is 1.67 h. In data set [5], this compound yielded a clearance of 2.79 mL/min/kg.
Consider `O=C(Nc1nc(-c2ccc(F)c(C(F)(F)F)c2)cs1)c1cnc(N2CCC(C(=O)O)CC2)c(Cl)c1`, for which, in data set [2], the bioavailability amounted to 66.8%. In data set [3], the Vd came out at 0.83 L/kg. This compound also gave a half-life in data set [4] of 1.34 h. In [5], the clearance came out at 6.89 mL/min/kg.
Usually Ki stands for a dissociation constant, usually derived from enzyme kinetics or from competition with a known ligand. Low readings indicate a stronger hold on the target, high ones a looser hold on the target. On to `Cc1nc(C(=O)Nc2ccc(O)c(C)n2)c(Nc2cccnc2)s1`, for which the inhibitory constant (Ki) in [6] came out at 111 nM.
In data set [6], `Cc1cccc(NC(=O)c2nc(C)sc2Nc2cccnc2)n1` showed a Ki of 9 nM.
For the compound `Cc1nc(C(=O)Nc2cccc(CO)n2)c(Nc2cccnc2)s1`, in [6], the affinity corresponds to a Ki of 67 nM.
On the same count and under the same terms, as for `Cc1cc(NC(=O)c2nc(C)sc2Nc2cccnc2)ccn1`, the figure is 44 nM.
With `Cc1cc(NC(=O)c2nc(C)sc2Nc2cncnc2)ccn1`, in data set [6], the affinity corresponds to a Ki of 81 nM.
In data set [6], `Cc1nc(C(=O)Nc2ccc(F)cn2)c(Nc2cccnc2)s1` yielded an inhibition constant Ki of 13 nM.
On the same count and under the same terms, the same measure for `Cc1nc(C(=O)Nc2ccc(F)cn2)c(Nc2cncnc2)s1`: 31 nM.
Turning to `C[C@@H](C1CC1)n1cc(Br)nc(Nc2c(Cl)cc(OC(F)F)cc2Cl)c1=O`, the metabolised at 10 µM in data set [1] was found to be 4%.
The term CLint scaled denotes the rate of metabolic loss divided by the concentration. Low readings indicate greater metabolic stability, high ones faster metabolism. Take `CC(C)N1CCC(Oc2ccc3[nH]c(C(=O)N4CCOCC4)cc3c2)CC1`: the Vd in data set [7] was found to be 3.5 L/kg. In data set [8], this compound had a half-life of 1.1 h. Moreover, the CLint scaled in [9] stood at 50 mL/min/kg.
As to `CC(C)N1CCC(Oc2ccc3[nH]c(C(=O)N4CCC(F)(F)CC4)cc3c2)CC1`, the Vd in data set [7] came out at 6 L/kg. The compound also came in with an intrinsic metabolic clearance (CLint scaled) in data set [9] of 18 mL/min/kg. Besides, the bioavailability in data set [10] is 100%.
In the case of `C[C@H](C1CC1)n1cc(C#N)nc(Nc2c(Cl)cc(OC(F)F)cc2Cl)c1=O`, the metabolised at 10 µM in data set [1] was 1%.
As to `C[C@@H](C1CC1)n1cc(Cl)nc(Nc2c(Cl)cc(OC(F)F)cc2Cl)c1=O`, in data set [1], the metabolised at 10 µM was determined as 20%.
What is called pKa is the pH at which an ionisable group is half protonated. Lower therefore signals a stronger acid or weaker base. Compound `C1CCCNCC1` [AZEPANE] registered a pKa in [11] of 10.9.
Compound `C1CNC1` [AZETIDINE] showed a pKa in data set [11] of 10.7.
The same measure, in the same setting: the same measure for `c1cnsc1` [ISOTHIAZOLE]: -0.51; for `c1cocn1` [OXAZOLE]: 0.8.
In the case of `c1cnccn1` [PYRAZINE], the pKa in data set [11] came to 0.4.
Consider `c1cn[nH]c1` [PYRAZOLE], for which the pKa in data set [11] worked out at 2.52.
In data set [11], `c1ccnnc1` [PYRIDAZINE] showed a pKa of 2.3.
